Usually Km stands for the concentration of substrate that gives half-maximal velocity. As a reminder, the IC50 is the concentration that inhibits the measured activity by half. A low value points to greater potency.

Three compounds from EP1914304A1 (priority 1998, dated 1999) can be followed below.

In assay [1] the target is gmk/TK-trunc fusion protein (murine guanylate kinase fused to wild-type HSV-1 TK without its first nine amino acids; pET23d:gmk/TK-trunc) (UniProt P0DTH5+Q64520). Conditions: Table X; purified from E. coli.
The target in assay [2] is gmk/TK-fl fusion protein (murine guanylate kinase fused to the entire wild-type HSV-1 TK; pET23d:gmk/TK-fl) (UniProt P0DTH5+Q64520). Conditions: Table X; purified from E. coli.
Assay [3] deals with rat C6 cells expressing gmk/TK-trunc fusion protein. Briefly: Ganciclovir dose response curve, fusion protein against wild-type TK. The following applies: Figure 31; fusion protein being the superior one. Type of assay: cell-based.
In assay [4] the test system is rat C6 glioblastoma cells transfected with TK mutant 30, subcutaneous tumor. Briefly: Mouse xenograft tumor model with prodrug treatment. The following applies: prodrug twice a day for 5 days from day 5; Figures 32-34. It counts as in vivo, Nude mice. The method, then:
(§1) Rat C6 glioblastoma cells were transfected with the stable expression vector pREP8D7:dualGFP as described above containing various TK mutants. […] Experiments were carried out to establish prodrug dosing levels for tumor ablation and efficacy of therapy. Nude mice (JAX Labs, Bar Harbor, Maine) were injected subcutaneously with 0.5 x10^6 transfected rat C6 cells. After 5 days, prodrugs (ACV and GCV) were administered twice a day for a further 5 days. Prodrug was given at either of two concentrations (shown as mg/kg). During this period and for an additional 6 days, tumor size was monitored by caliper measurement every other day. At the end of the period, mice were sacrificed and the tumors excised and weighed.

For assay [5], the system named is rat C6 glioblastoma cells transfected with TK mutant SR39, subcutaneous tumor. Kind of assay: Mouse xenograft tumor model with prodrug treatment. It counts as in vivo, Nude mice. Conditions: prodrug twice a day for 5 days from day 5; Figures 32-34. Here is the method:
as §1

Assay [6] concerns Rat C6 cells expressing TK mutant SR26. Kind of assay: Rat C6 kill curves with GCV and ACV. It counts as cell-based. The following applies: Table VIII. From the text:
(§2) The seven mutants were subcloned into the mammalian expression vector, pREP8D7:dualGFP. This vector contains a constitutive metallothionin promoter, which drives the expression of green flourescent protein (GFP), and an RSV LTR promoter, which stimulated expression of the TK mutants. The vector also contains a histidinol resistance gene for selection of transformants. Purified vector DNA of these constructs was used to transfect BHK tk- cells by electroporation. The transfectants were selected by resistance to histidinol and sorted using FACS analysis for GFP expression. Pools of transfectants were then assayed for sensitivity to GCV or ACV over a range of prodrug doses. […] Table VIII illustrates the IC50 values from Rat C6 kill curves with the SR11, SR26, and SR39 mutants.

Assay [7] relates to Rat C6 cells expressing TK mutant SR39. Kind of assay: Rat C6 kill curves with GCV and ACV. It counts as cell-based. The following applies: Table VIII.
Source text: as §2

Assay [8] relates to Rat C6 cells expressing TK mutant SR11. Kind of assay: Rat C6 kill curves with GCV and ACV. The following applies: Table VIII. It counts as cell-based.
Source text: as §2

The test system of assay [9] is Rat C6 cells expressing TK mutant 411. Kind of assay: Rat C6 kill curves with GCV and ACV. It counts as cell-based. Conditions: Table VIII.
Source text: as §2

For assay [10], the system named is Rat C6 cells expressing TK mutant 75. Briefly: Rat C6 kill curves with GCV and ACV. Conditions: Table VIII. Type of assay: cell-based.
Source text: as §2

Assay [11] has as its system Rat C6 cells expressing TK mutant 30. Kind of assay: Rat C6 kill curves with GCV and ACV. Conditions: Table VIII. It counts as cell-based.
Source text: as §2

The test system of assay [12] is Rat C6 cells expressing wild-type TK. Kind of assay: Rat C6 kill curves with GCV and ACV. Type of assay: cell-based. The following applies: Table VIII.
Source text: as §2

Assay [13] deals with ts13 BHK tk- cells transfected with pCMV:132 (HSV-1 TK mutant 132). Kind of assay: Cell killing by GCV and ACV, Alamar Blue viability (ED50). Type of assay: cell-based, baby hamster. Conditions: Mesocricetus auratus, 96 h; effective dose for 50% cell killing, after 4 days on nucleoside analog, pooled G418 resistant clones. The method, then: (§3) Briefly, the cell transfections are performed as follows. Approximately 5 x 10^5 ts13 BHK tk cells (ATCC CRL-1632) are plated on 100mm dishes in DMEM + 10% calf serum. For each transfection 1 µg of pSV2neo and 10µg of a pCMV construct (pCMV, pCMV:TK-wrong (HSVTK in the wrong orientation relative to the promoter), pCMV:HSVTK, pCMV:30, pCMV:75 or pCMV:132 DNA) in 0.25M CaCl2 are mixed with 0.5ml 2 x BBS (see Chen and Okayama) and preincubated at 37°C at 2.5% CO2 for […]. The CaCl2/DNA mix is added dropwise to the plates and mixed in well. After a 24 hour incubation at 37°C in a 2.5% CO2 wet incubator, the cells are rinsed twice with Dulbecco PBS minus Ca/Mg and fed with fresh DMEM + 10% calf serum. Plates are incubated at 37°C with 6% CO2. After 72 hours post-transfection the cells are split 1:3 and plated in DMEM + 10% calf serum containing G418 at 600µg/ml.
(§4) The cells are selected on G418 (600µg/ml) at 37°C for 17 days. […]. Approximately 30-40 clones are selected in this manner for each transfected DNA containing a tk gene in the correct orientation. The pCMV and pCMV:TK-wrong transfections yielded between 130 and 140 clones each. G418 resistant clones are harvested, pooled and plated at a density of 2000 cells/well in 100µl DMEM + 10% calf serum and 200µg/ml G418 + 6% CO2 in 96 well microtiter plates. […]. After three days in the presence of the nucleoside analog, Alamar Blue is added and 6 hours later the plates are scanned using a fluorometer as according to the manufacturer's protocol (Alamar Biosciences, Inc., Sacramento, CA). The plates are incubated a further 24 hours at 37°C and scanned again.
(§5) Determination of the fluorescence level of cells incubated in the presence of Alamar Blue directly relates to cell viability.
(In general: Alamar Blue is a resazurin reagent that responds to reducing activity.)

The subject of assay [14] is ts13 BHK tk- cells transfected with pCMV:30 (HSV-1 TK mutant 30). The assay is described as above. Conditions: Mesocricetus auratus, 96 h; effective dose for 50% cell killing, after 4 days on nucleoside analog, pooled G418 resistant clones. It counts as cell-based, baby hamster. The method, then:
as §3, §4, §5

For assay [15], the system named is ts13 BHK tk- cells transfected with pCMV:75 (HSV-1 TK mutant 75). Described as above. Type of assay: cell-based, baby hamster. Conditions: Mesocricetus auratus, 96 h; effective dose for 50% cell killing, after 4 days on nucleoside analog, pooled G418 resistant clones. Here is the method: as §3, §4, §5
For assay [16], the system named is ts13 BHK tk- cells transfected with pCMV:HSVTK (wild-type HSV-1 TK). The description is as above. It counts as cell-based, baby hamster. The following applies: Mesocricetus auratus, 96 h; effective dose for 50% cell killing, after 4 days on nucleoside analog, pooled G418 resistant clones. Here is the method: as §3, §4, §5
Assay [17] deals with T1, HSV-1 thymidine kinase mutant 75 (LIF-ALL library, codons 159-161 and 168-170 randomized; pET23d:75) (Human herpesvirus 1, UniProt P0DTH5).
T1 sequence (P0DTH5 1-376): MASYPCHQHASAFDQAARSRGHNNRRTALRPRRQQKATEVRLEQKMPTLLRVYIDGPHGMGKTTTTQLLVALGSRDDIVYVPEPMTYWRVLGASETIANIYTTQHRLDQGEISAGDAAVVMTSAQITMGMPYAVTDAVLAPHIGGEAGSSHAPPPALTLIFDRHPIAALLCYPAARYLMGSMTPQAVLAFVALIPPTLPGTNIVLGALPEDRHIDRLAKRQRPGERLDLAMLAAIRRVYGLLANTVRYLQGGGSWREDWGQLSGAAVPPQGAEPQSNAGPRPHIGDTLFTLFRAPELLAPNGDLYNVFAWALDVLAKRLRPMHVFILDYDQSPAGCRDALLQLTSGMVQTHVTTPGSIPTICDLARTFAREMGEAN
Conditions: Table V.
Method: The culture is incubated at 37°C overnight. The following day the 5ml culture is used to inoculate 1L M9ZB + cabenicillin at 20µg/ml and the culture allowed to grow at 37°C to OD600 0.1. At that point IPTG is added to 0.4mM and the culture incubated a further 3 hours. The cells are chilled on ice, pelleted by centrifugation and the pellets washed once in cell wash buffer (50mM Tris, pH 7.5, 5mM EDTA, 10% sucrose) prior to freezing the pellets at -70°C. The next day the cells are resuspended in 12ml Buffer 1 (50mM Tris, pH 7.5, 10% sucrose, 2mM DTT, 5mM EDTA, 1mM PMSF) and the volume split into two 13ml Oakridge ultracentrifuge tubes. 1ml Buffer 1 containing 3mg lysozyme is added to each tube and the tubes left on ice for 1 hr. […] The cleared supernatant is then aliquoted and frozen at -70°C.
The 1ml bed volume column is prepared by passing 10ml Buffer 1 followed by 10ml Absorption Buffer (50mM Tris, pH 7.5, 10% sucrose, 2mM DTT, 25mM MgAc2, 10mM ATP) over the column. Two ml of the cleared lysate is mixed with 2 ml of Absorption Buffer and passed through a 0.2µm filter. This mix is passed over the column 3 times. The column is washed with 5ml Absorption buffer three times and the 5ml fractions collected. […] The column is reactivated by loading on 10ml High Salt Buffer (50mM Tris, pH 7.5, 10% sucrose, 2mM DTT, 0.5M KCl) and 10ml 50mM Tris, pH 7.5. The column is stored in 50mM Tris pH 7.5 + 0.004% sodium azide. The extent of purification is monitored by Coomassie stained SDS:PAGE analysis and the concentration of purified protein determined using the BioRad Reagent (Bradford Reagent).
Km and Vmax values are determined from double reciprocal plots and kcat values are calculated using the equation Vmax = kcat [Eo] where [Eo] is the total enzyme concentration. The BioRad reagent was used to determine the total enzyme concentration of purified thymidine kinase enzymes.

As for `Nc1nc2c(ncn2[C@@H]2O[C@H](COP(=O)(O)O)[C@@H](O)[C@H]2O)c(=O)[nH]1` [GMP], the Km in assay [1] worked out at 95 µM; in [2], 146 µM.

For the compound `Nc1nc2c(ncn2[C@H]2C[C@H](O)[C@@H](COP(=O)(O)O)O2)c(=O)[nH]1` [dGMP], the Km is 218 µM in [1] and 359 µM in assay [2].

For `Nc1nc(O)c2ncn(COC(CO)CO)c2n1` [ganciclovir], in [3], the “difference in IC50 between fusion protein and wild-type TK” value worked out at 100 fold. For the same compound, the “tumor reduction (tumor diameter, final tumor weight)” value in [4] and in [5] was “significant tumor reduction” each time. Moreover, the IC50 in [6] was 0.04 µM; in [7], 0.017 µM; in assay [8], 0.15 µM; in [9], 0.1 µM; in assay [10], more than 1 µM; in [11] it was 0.01 µM. The IC50 in assay [12] was determined as 5 µM; in assay [13], 18 µM; in [14], 4.4 µM; in [15] it was 0.47 µM; in [16] it was 20 µM. The Km in assay [17] (double reciprocal plots) is 10 µM. The kcat entry in [17] (per active site) is “.050 s⁻¹”.
